Data taken from PubChem BioAssay AID2060495 (Molecular Pharmacology Branch, DTP, NCI, 2025).

Test system: 521955-158-R2-J5-PDC complex spheroid viability
Assay: Anticancer human tumor 521955-158-R2-J5-PDC patient-derived pancreatic carcinoma cell line growth inhibition [GQUAD]
Conditions: for IC50: curve of first compound; for viability, T/C: stronger effect = lower value
How it was run: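 Multi-cell-type spheroids of tumor cells with HUVEC and mesenchymal stem cells, treated with drug combinations. Concentrations descend in half-log steps from near clinical Cmax, or from 10 microM where Cmax is unknown; viability read-out.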

[1] = second compound 0.0316 µM, first compound 0.0316 µM
[2] = second compound 0.0316 µM, first compound 0.1 µM
[3] = second compound 0.0316 µM, first compound 0.316 µM
[4] = second compound 0.0316 µM, first compound 1 µM
[5] = second compound 0.0316 µM, first compound 3.16 µM
[6] = second compound 0.0316 µM, first compound 10 µM
[7] = second compound 0.1 µM, first compound 0.0316 µM
[8] = second compound 0.1 µM, first compound 0.1 µM
[9] = second compound 0.1 µM, first compound 0.316 µM
[10] = second compound 0.1 µM, first compound 1 µM
[11] = second compound 0.1 µM, first compound 3.16 µM
[12] = second compound 0.1 µM, first compound 10 µM
[13] = second compound 0.316 µM, first compound 0.0316 µM
[14] = second compound 0.316 µM, first compound 0.1 µM
[15] = second compound 0.316 µM, first compound 0.316 µM
[16] = second compound 0.316 µM, first compound 1 µM
[17] = second compound 0.316 µM, first compound 3.16 µM
[18] = second compound 0.316 µM, first compound 10 µM
[19] = second compound 1 µM, first compound 0.0316 µM
[20] = second compound 1 µM, first compound 0.1 µM
[21] = second compound 1 µM, first compound 0.316 µM
[22] = second compound 1 µM, first compound 1 µM
[23] = second compound 1 µM, first compound 3.16 µM
[24] = second compound 1 µM, first compound 10 µM
[25] = second compound 3.16 µM, first compound 0.0316 µM
[26] = second compound 3.16 µM, first compound 0.1 µM
[27] = second compound 3.16 µM, first compound 0.316 µM
[28] = second compound 3.16 µM, first compound 1 µM
[29] = second compound 3.16 µM, first compound 3.16 µM
[30] = second compound 3.16 µM, first compound 10 µM
[31] = second compound 10 µM, first compound 0.0316 µM
[32] = second compound 10 µM, first compound 0.1 µM
[33] = second compound 10 µM, first compound 0.316 µM
[34] = second compound 10 µM, first compound 1 µM
[35] = second compound 10 µM, first compound 3.16 µM
[36] = second compound 10 µM, first compound 10 µM
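Further: spheroids exposed to agents for one week before reading.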
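Wherever viability, T/C is given: 100% = DMSO vehicle control viability.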

COc1cccc2c1C(=O)c1c(O)c3c(c(O)c1C2=O)CC(O)(C(=O)CO)CC3OC1CC(N)C(O)C(C)O1 (stereo not drawn) + Cc1[nH]c2ccc(F)cc2c1-c1nc2c3cccnc3c3ncccc3c2[nH]1
IC50 (second compound 0.0316 µM): 0.15 µM
IC50 (second compound 0.1 µM): 0.193 µM
IC50 (second compound 0.316 µM): 0.188 µM
IC50 (second compound 1 µM): 0.13 µM
IC50 (second compound 3.16 µM): 0.156 µM
IC50 (second compound 10 µM): 0.182 µM
viability, T/C [1]: 102%
viability, T/C [2]: 60.3%
viability, T/C [3]: 31.3%
viability, T/C [4]: 13.2%
viability, T/C [5]: 5.72%
viability, T/C [6]: 0.72%
viability, T/C [7]: 92.3%
viability, T/C [8]: 72.2%
viability, T/C [9]: 32.9%
viability, T/C [10]: 11%
viability, T/C [11]: 5.83%
viability, T/C [12]: 0.27%
viability, T/C [13]: 88.4%
viability, T/C [14]: 72.9%
viability, T/C [15]: 30%
viability, T/C [16]: 13.7%
viability, T/C [17]: 3.99%
viability, T/C [18]: 0.46%
viability, T/C [19]: 90.1%
viability, T/C [20]: 57.7%
viability, T/C [21]: 25.4%
viability, T/C [22]: 14.1%
viability, T/C [23]: 5.66%
viability, T/C [24]: 0.41%
viability, T/C [25]: 85.7%
viability, T/C [26]: 65.6%
viability, T/C [27]: 24.5%
viability, T/C [28]: 17.2%
viability, T/C [29]: 4.87%
viability, T/C [30]: 0.33%
viability, T/C [31]: 97.5%
viability, T/C [32]: 73.6%
viability, T/C [33]: 27.5%
viability, T/C [34]: 12.1%
viability, T/C [35]: 9.02%
viability, T/C [36]: 0.29%

Cc1cccc(N(C)C(=O)C2C(O)CCN2c2nc(C)cc(C(F)(F)F)c2C#N)c1 (stereo not drawn) + Cc1[nH]c2ccc(F)cc2c1-c1nc2c3cccnc3c3ncccc3c2[nH]1
IC50 (second compound 0.0316 µM): > 10 µM
IC50 (second compound 0.1 µM): > 10 µM
IC50 (second compound 0.316 µM): > 10 µM
IC50 (second compound 1 µM): > 10 µM
IC50 (second compound 3.16 µM): > 10 µM
IC50 (second compound 10 µM): > 10 µM
viability, T/C [1]: 111%
viability, T/C [2]: 85.8%
viability, T/C [3]: 110%
viability, T/C [4]: 107%
viability, T/C [5]: 110%
viability, T/C [6]: 123%
viability, T/C [7]: 92.2%
viability, T/C [8]: 109%
viability, T/C [9]: 94.7%
viability, T/C [10]: 106%
viability, T/C [11]: 126%
viability, T/C [12]: 120%
viability, T/C [13]: 91.1%
viability, T/C [14]: 93.5%
viability, T/C [15]: 101%
viability, T/C [16]: 114%
viability, T/C [17]: 112%
viability, T/C [18]: 111%
viability, T/C [19]: 92.7%
viability, T/C [20]: 100%
viability, T/C [21]: 108%
viability, T/C [22]: 105%
viability, T/C [23]: 128%
viability, T/C [24]: 115%
viability, T/C [25]: 110%
viability, T/C [26]: 88.2%
viability, T/C [27]: 92.5%
viability, T/C [28]: 91.8%
viability, T/C [29]: 132%
viability, T/C [30]: 120%
viability, T/C [31]: 115%
viability, T/C [32]: 104%
viability, T/C [33]: 104%
viability, T/C [34]: 122%
viability, T/C [35]: 126%
viability, T/C [36]: 113%

Cn1ncnc1[C@H]1c2n[nH]c(=O)c3cc(F)cc(c23)N[C@@H]1c1ccc(F)cc1 + Cc1[nH]c2ccc(F)cc2c1-c1nc2c3cccnc3c3ncccc3c2[nH]1
IC50 (second compound 0.0316 µM): > 0.316 µM
IC50 (second compound 0.1 µM): > 0.316 µM
IC50 (second compound 0.316 µM): > 0.316 µM
IC50 (second compound 1 µM): > 0.316 µM
IC50 (second compound 3.16 µM): > 0.316 µM
IC50 (second compound 10 µM): > 0.316 µM
viability, T/C (second compound 0.0316 µM, first compound 0.000999 µM): 95.7%
viability, T/C (second compound 0.0316 µM, first compound 0.00316 µM): 86.3%
viability, T/C (second compound 0.0316 µM, first compound 0.00999 µM): 93.5%
viability, T/C [1]: 91%
viability, T/C (second compound 0.0316 µM, first compound 0.0999 µM): 73.2%
viability, T/C [3]: 59.8%
viability, T/C (second compound 0.1 µM, first compound 0.000999 µM): 89.4%
viability, T/C (second compound 0.1 µM, first compound 0.00316 µM): 106%
viability, T/C (second compound 0.1 µM, first compound 0.00999 µM): 90.9%
viability, T/C [7]: 80.4%
viability, T/C (second compound 0.1 µM, first compound 0.0999 µM): 91.1%
viability, T/C [9]: 74.4%
viability, T/C (second compound 0.316 µM, first compound 0.000999 µM): 94.3%
viability, T/C (second compound 0.316 µM, first compound 0.00316 µM): 96%
viability, T/C (second compound 0.316 µM, first compound 0.00999 µM): 83.6%
viability, T/C [13]: 88.7%
viability, T/C (second compound 0.316 µM, first compound 0.0999 µM): 70.4%
viability, T/C [15]: 73.1%
viability, T/C (second compound 1 µM, first compound 0.000999 µM): 91.7%
viability, T/C (second compound 1 µM, first compound 0.00316 µM): 93.7%
viability, T/C (second compound 1 µM, first compound 0.00999 µM): 91%
viability, T/C [19]: 74.2%
viability, T/C (second compound 1 µM, first compound 0.0999 µM): 102%
viability, T/C [21]: 73.6%
viability, T/C (second compound 3.16 µM, first compound 0.000999 µM): 93%
viability, T/C (second compound 3.16 µM, first compound 0.00316 µM): 107%
viability, T/C (second compound 3.16 µM, first compound 0.00999 µM): 83.9%
viability, T/C [25]: 86.8%
viability, T/C (second compound 3.16 µM, first compound 0.0999 µM): 70.8%
viability, T/C [27]: 69.8%
viability, T/C (second compound 10 µM, first compound 0.000999 µM): 92.7%
viability, T/C (second compound 10 µM, first compound 0.00316 µM): 80.5%
viability, T/C (second compound 10 µM, first compound 0.00999 µM): 82.6%
viability, T/C [31]: 86.1%
viability, T/C (second compound 10 µM, first compound 0.0999 µM): 77.8%
viability, T/C [33]: 68.1%

O=C(c1cc(Cc2n[nH]c(=O)c3ccccc23)ccc1F)N1CCN(C(=O)C2CC2)CC1 + Cc1[nH]c2ccc(F)cc2c1-c1nc2c3cccnc3c3ncccc3c2[nH]1
IC50 (second compound 0.0316 µM): > 10 µM
IC50 (second compound 0.1 µM): > 10 µM
IC50 (second compound 0.316 µM): > 10 µM
IC50 (second compound 1 µM): > 10 µM
IC50 (second compound 3.16 µM): > 10 µM
IC50 (second compound 10 µM): > 10 µM
viability, T/C [1]: 84.3%
viability, T/C [2]: 88.5%
viability, T/C [3]: 89.8%
viability, T/C [4]: 80.4%
viability, T/C [5]: 93%
viability, T/C [6]: 74.5%
viability, T/C [7]: 83.4%
viability, T/C [8]: 80%
viability, T/C [9]: 82%
viability, T/C [10]: 83.2%
viability, T/C [11]: 87.9%
viability, T/C [12]: 96.3%
viability, T/C [13]: 80.9%
viability, T/C [14]: 76.9%
viability, T/C [15]: 102%
viability, T/C [16]: 102%
viability, T/C [17]: 88.3%
viability, T/C [18]: 91%
viability, T/C [19]: 92.4%
viability, T/C [20]: 93%
viability, T/C [21]: 99.4%
viability, T/C [22]: 98.8%
viability, T/C [23]: 104%
viability, T/C [24]: 92.7%
viability, T/C [25]: 91.8%
viability, T/C [26]: 104%
viability, T/C [27]: 78.7%
viability, T/C [28]: 98.3%
viability, T/C [29]: 98.7%
viability, T/C [30]: 84.5%
viability, T/C [31]: 86.8%
viability, T/C [32]: 92.7%
viability, T/C [33]: 88.2%
viability, T/C [34]: 102%
viability, T/C [35]: 92.5%
viability, T/C [36]: 82.6%
